Measured values from US9458414B2, “Cleaning, surfactant, and personal care compositions” (SEGETIS, INC., priority 2012, dated 2016).

How the values were obtained:
Type in all cases: physicochemical
[1] = Coupling of water and octanoic acid by hydrotropes (amount producing a single phase)
Description: Hydrotropes were added to a two-component mixture of octanoic acid and deionized (DI) water to find the amount that produced a single phase from the two separate phases of water and octanoic acid.
The percent hydrotrope required to compatibilize phases (and the resulting percent octanoic acid) were calculated and the results are shown in Table 4 as well as FIG. 1.

[2] = Coupling of water and soy methyl ester by hydrotropes
Description: Hydrotropes were added to a two-component mixture of soy methyl ester and DI water to find the amount that produced a single phase from the two separate phases of water and soy methyl ester. The percent hydrotrope required to compatibilize the phases was calculated.

[3] = Coupling of water and castor oil by hydrotropes
[4] = ratio of water:octanoic acid 10:90
[5] = ratio of water:octanoic acid 30:70
[6] = ratio of water:octanoic acid 50:50
[7] = ratio of water:octanoic acid 70:30
[8] = ratio of water:octanoic acid 90:10
[9] = water:octanoic acid 10:90 (DI water 0.5 g, octanoic acid 4.5 g)
[10] = water:octanoic acid 30:70 (DI water 1.5 g, octanoic acid 3.5 g)
[11] = water:octanoic acid 50:50 (DI water 5.0 g, octanoic acid 5.0 g)
[12] = water:octanoic acid 70:30 (DI water 3.5 g, octanoic acid 1.5 g)
[13] = water:octanoic acid 90:10 (DI water 4.5 g, octanoic acid 0.5 g)
[14] = all ratios 10:90 to 90:10, measured levels up to >95%
[15] = ratio of water:soy methyl esters 10:90
[16] = ratio of water:soy methyl esters 30:70
[17] = ratio of water:soy methyl esters 50:50
[18] = ratio of water:soy methyl esters 70:30
[19] = ratio of water:soy methyl esters 90:10
[20] = ratio of water to castor oil 10:90
[21] = ratio of water to castor oil 30:70
[22] = ratio of water to castor oil 50:50
[23] = ratio of water to castor oil 70:30
[24] = ratio of water to castor oil 90:10

## Sodium xylene-sulfonate [Sodium xylene-sulfonate (SXS) (40%)]
[1]; [4]
  Wt % Hydrotrope required to compatibilize phases: 13%
  Wt % Octanoic Acid (resulting, at compatibilization): 61%
[1]; [5]
  Wt % Hydrotrope required to compatibilize phases: 16%
  Wt % Octanoic Acid (resulting, at compatibilization): 43%
[1]; [6]
  Wt % Hydrotrope required to compatibilize phases: 17%
  Wt % Octanoic Acid (resulting, at compatibilization): 29%
[1]; [7]
  Wt % Hydrotrope required to compatibilize phases: 17%
  Wt % Octanoic Acid (resulting, at compatibilization): 18%
[1]; [8]
  Wt % Hydrotrope required to compatibilize phases: 16%
  Wt % Octanoic Acid (resulting, at compatibilization): 6%
[1]; [9]
  Amount of hydrotrope that produced a single phase: 2.32 grams
[1]; [10]
  Amount of hydrotrope that produced a single phase: 3.23 grams
[1]; [11]
  Amount of hydrotrope that produced a single phase: 7.4 grams
[1]; [12]
  Amount of hydrotrope that produced a single phase: 3.55 grams
[1]; [13]
  Amount of hydrotrope that produced a single phase: 3.33 grams
[2]; [14]
  Compatibilization of water and soy methyl esters: *The sodium xylenesulfonate did not compatibilize at any measured level (up to >95%).
[3]; [14]
  Compatibilization of water and castor oil: *The sodium xylenesulfonate did not compatibilize at any measured level (up to >95%).

## COC(C)COC(C)CO (stereo not shown) [DPM, dipropylene glycol methyl ether]
[1]; [4]
  Wt % Hydrotrope required to compatibilize phases: 30%
  Wt % Octanoic Acid (resulting, at compatibilization): 63%
[1]; [5]
  Wt % Hydrotrope required to compatibilize phases: 47%
  Wt % Octanoic Acid (resulting, at compatibilization): 37%
[1]; [6]
  Wt % Hydrotrope required to compatibilize phases: 51%
  Wt % Octanoic Acid (resulting, at compatibilization): 25%
[1]; [7]
  Wt % Hydrotrope required to compatibilize phases: 48%
  Wt % Octanoic Acid (resulting, at compatibilization): 16%
[1]; [8]
  Wt % Hydrotrope required to compatibilize phases: 43%
  Wt % Octanoic Acid (resulting, at compatibilization): 6%
[1]; [9]
  Amount of hydrotrope that produced a single phase: 2.14 grams
[1]; [10]
  Amount of hydrotrope that produced a single phase: 4.52 grams
[1]; [11]
  Amount of hydrotrope that produced a single phase: 10.34 grams
[1]; [12]
  Amount of hydrotrope that produced a single phase: 4.66 grams
[1]; [13]
  Amount of hydrotrope that produced a single phase: 3.7 grams
[2]; [15]
  Wt % Hydrotrope required to compatibilize the phases: 48%
  Wt % Soy Methyl Esters (at compatibilization): 47%
[2]; [16]
  Wt % Hydrotrope required to compatibilize the phases: 63%
  Wt % Soy Methyl Esters (at compatibilization): 28%
[2]; [17]
  Wt % Hydrotrope required to compatibilize the phases: 74%
  Wt % Soy Methyl Esters (at compatibilization): 13%
[2]; [18]
  Wt % Hydrotrope required to compatibilize the phases: 78%
  Wt % Soy Methyl Esters (at compatibilization): 5%
[2]; [19]
  Wt % Hydrotrope required to compatibilize the phases: 78%
  Wt % Soy Methyl Esters (at compatibilization): 2%
[3]; [20]
  Wt % Castor oil (at compatibilization): 40%
  Wt % Hydrotrope required to compatibilize phases: 56%
[3]; [21]
  Wt % Castor oil (at compatibilization): 26%
  Wt % Hydrotrope required to compatibilize phases: 65%
[3]; [22]
  Wt % Castor oil (at compatibilization): 13%
  Wt % Hydrotrope required to compatibilize phases: 74%
[3]; [23]
  Wt % Castor oil (at compatibilization): 5%
  Wt % Hydrotrope required to compatibilize phases: 79%
[3]; [24]
  Wt % Castor oil (at compatibilization): 2%
  Wt % Hydrotrope required to compatibilize phases: 81%
